In PMC7287031 (Pharmacology Research & Perspectives, 2020):

Assays:
[1] = Human ADME study: total radioactivity PK in blood and plasma (AMS); format: in vivo; conditions: single oral 600 mg [14C] ribociclib, N=6
Method: Subjects continued to fast for 4 hours after drug administration. […] Urine was collected from 0‐6, 6‐12, and 12‐24 h post dose, then over 24‐hour intervals until 504 hours post dose. Feces was collected over 24‐h intervals until 504 hours post dose, during which time the volunteers were confined to the clinic. Vomitus was also scheduled to be collected for 12 hours post dosing. However, no volunteers vomited during the study. […] Electrostatics Corporation 1.5SDH Compact AMS System (Middleton) in the bioanalytical laboratory of Accium BioSciences, Seattle, WA, USA. A known aliquot of each blood and plasma specimen was transferred to a prebaked quartz tube. […] An AMS batch consisted of unknown specimens and chemical blank(s) to monitor for any in‐process contamination. The samples were then dried using vacuum centrifugation and submitted to graphitization. Graphitization consisted of combustion of samples followed by reduction to graphite according to published methods. ^12 Briefly, approximately 200‐mg copper oxide was added to each combustion tube containing the dried sample residue. The combustion tubes were flame‐sealed under vacuum and combusted at approximately 900°C to form carbon dioxide (CO2). Combusted samples were then attached to a disposable transfer system connected to a septa‐sealed vial. […]

[2] = Human ADME study: quantitative metabolite profiling in plasma; format: in vivo; conditions: human plasma pools n=6, from metabolite patterns
Method: A plasma pool across the six healthy volunteers included in the study was prepared at the time points of 1 hour, 3 hours, 24 hours, and 48 hours post dose. For each time point, an equal volume of plasma was taken from each subject and combined. Plasma pool samples were processed by protein precipitation with acetonitrile. The protein pellet that resulted from precipitation with acetonitrile was washed further with additional aliquots of acetonitrile. All acetonitrile washes were combined and evaporated under nitrogen. For the 3‐ and 24‐hour plasma pools, the extraction procedure was slightly modified, including precipitation of the plasma proteins by addition of a 1:1 mixture of acetonitrile:methanol, followed by washing of the protein pellet with the same solvent mixture. All extracts were reconstituted with a solution of 15‐mM ammonium formate and acetonitrile (95:5 v/v). Extraction and reconstitution recoveries were measured in all four plasma samples in order to calculate and overall recovery. Quantitative metabolite profiling in plasma was accomplished using a Shimadzu Prominence high‐performance liquid chromatography (HPLC) system (Shimadzu, Columbia, MD, USA), coupled with fraction collection and analysis of total radioactivity in individual fractions using AMS (as described above). A second injection of each sample, conducted immediately after the first, was used to provide HPLC fractions for metabolite identification. The fractions identified as containing radioactivity from the AMS analysis were analyzed by HPLC coupled with high‐resolution mass spectrometry to identify the metabolites. The HPLC‐MS/MS methodology used is described below.

CYP3A5 = molecular target: T1, CYP3A5 (Homo sapiens, UniProt P20815); assay: Enzyme kinetics with recombinant CYP3A5 and scaling to HLM; format: in vitro ADME
T1 construct: purchased BD Biosciences
T1 sequence (P20815 whole entry): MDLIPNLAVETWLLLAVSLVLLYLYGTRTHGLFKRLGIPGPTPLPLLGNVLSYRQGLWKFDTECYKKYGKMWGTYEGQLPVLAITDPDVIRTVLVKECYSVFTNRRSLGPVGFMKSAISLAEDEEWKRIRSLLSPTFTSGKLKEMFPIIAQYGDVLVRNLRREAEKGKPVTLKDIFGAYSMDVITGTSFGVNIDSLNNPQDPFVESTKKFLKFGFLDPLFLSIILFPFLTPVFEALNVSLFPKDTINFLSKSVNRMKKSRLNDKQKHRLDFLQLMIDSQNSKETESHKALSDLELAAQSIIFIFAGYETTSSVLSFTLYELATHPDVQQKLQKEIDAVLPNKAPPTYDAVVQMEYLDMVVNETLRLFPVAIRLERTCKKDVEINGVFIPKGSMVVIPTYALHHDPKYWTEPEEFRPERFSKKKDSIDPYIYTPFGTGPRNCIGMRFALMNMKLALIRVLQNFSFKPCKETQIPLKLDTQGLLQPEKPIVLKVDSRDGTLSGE
Method: (§1) In vitro incubations were carried out in 100‐mM potassium phosphate buffer (pH 7.4) and 5‐mM MgCl2 with a total volume of 200 µL. Substrate and either human liver microsomes (HLM, BD Biosciences, mixed gender pool of n = 50) or recombinant human enzymes (BD Biosciences) were added and pre‐incubated for 3 minutes at 37°C. The reaction was started by addition of a fresh solution of NADPH (1 mmol/L final concentration). The samples were incubated at 37°C with agitation of 500 rpm. For incubations with CYP2A6, CYP2C9, CYP2C18, and CYP4A11, the phosphate buffer was replaced by TRIS buffer (100 mmol/L, pH 7.4) and for flavin‐containing monooxygenases (FMOs), a glycine buffer (50 mM, pH 9.5) was used.
The enzymatic reaction was stopped and the protein was precipitated by addition of an equal volume of methanol. After 30 min at −80°C, the samples were centrifuged at 30'000 x g for 15 min. The supernatant was withdrawn. Aliquots were analyzed by LSC and the supernatant was diluted with water to obtain a final solution containing less than 20% of the organic solvent. For samples of low substrate concentration, supernatants were evaporated to dryness under nitrogen, then re‐suspended in water containing less than 20% of methanol. Samples were analyzed by HPLC combined with radiodetection. […]

human liver microsomes = assay: Enzyme kinetics of total oxidative metabolism in pooled human liver microsomes; format: in vitro ADME; conditions: pooled HLM, Michaelis-Menten model
Method: as §1
(§2) The enzymatic reaction was stopped and the protein was precipitated by addition of an equal volume of methanol. After 30 min at −80°C, the samples were centrifuged at 30'000 x g for 15 min. The supernatant was withdrawn. Aliquots were analyzed by LSC and the supernatant was diluted with water to obtain a final solution containing less than 20% of the organic solvent. […] Samples were analyzed by HPLC combined with radiodetection.
(§3) Km and Vmax parameters were calculated by using SigmaPlot Version 8.0, Enzyme Kinetics module Version 1.1 software (SPSS Science Inc, Chicago, IL, USA). The intrinsic clearance was calculated by the equation: CLint = Vmax/Km.

[3] = as above; format: in vitro ADME; conditions: both sexes, human, pooled human liver microsomes, pH 7.4; pooled HLM, Michaelis-Menten model
Method: as §1, §2, §3

SMILES: CN(C)C(=O)c1cc2cnc(Nc3ccc(N4CCNCC4)cn3)nc2n1C1CCCC1 [ribociclib, Ribociclib]
- tlast of total radioactivity, median ([1]; human blood): 504 h
- tlast of total radioactivity, median ([1]; human plasma): 504 h
- AUC0-48h, % of total [14C]-AUC0-48 [2]: approximately 43.5%
- AUC0-48h, % of total [14C]-AUC0-48 ([2]; listed as Ribociclib): 43.5%
- fm,CYP (CYP3A5; CYP3A5, share of total CYP-mediated metabolism in HLM): 1.2%
- fumic (CYP3A5; CYP3A5 incubation): 0.87
- Vmax, total metabolism (human liver microsomes): 766 ± 13 pmol/min/mg
- Km [3]: 29.1 ± 1.8 µM
